# According to patent US11643417B2, “Tetrahydrobenzofurodiazepinone compound and pharmaceutical use thereof” (priority 2020, dated 2023):
# Biological target: human Pim-1 (Homo sapiens (Human), UniProt P11309)
# Assay: biochemical
# Format: biochemical
# Details: Ki converted from IC50; purified human Pim-1, Pim2tide substrate, ADP-Glo; read-out: hPim1 Ki
# Experimental: The human Pim-1 inhibitory activity of the test compounds was evaluated as follows.
# (1) Purification of Human Pim-1
# DNA fragment in which a His-Tag sequence and a translation termination sequence are added to the 3′-end of human Pim-1 translation sequence was amplified by PCR (Polymerase Chain Reaction), using human Pim-1 gene-inserted plasmid DNA (Kazusa DNA Laboratory, model number FXC11400) as a template. The amplified DNA fragment was fused with pGEx-6P-1 (GE Healthcare Japan, model number 27-4597-1) digested with BamHI and EcoRI using In-Fusion HD Cloning Kit (Takara Bio, model number 639649). […] The base sequence of Pim-1 cloned into vector was determined by Dye Terminator method using BigDye Terminator v3.1 Cycle Sequencing Kit (Applied Biosystems, model number 4337456). […] Escherichia coli BL21 (DE3) (Merck KGaA, model number 69449-4) transformed with human Pim-1-expressed plasmid DNA was cultured in 2×YT medium (Becton Dickinson, model number 2404020) at 30° C., until the optical concentration at 620 nm (OD620) reached 0.6, and then cultured overnight at 20° C. in the presence of 0.5 mmol/L isopropyl b-D-1-thiogalactopyranoside. After the completion of so the culture, the cells were collected and suspended in Homogenate Buffer (50 mmol/L Tris-HCl (pH 7.5), 500 mmol/L NaCl, 1% Tween20, complete, EDTA-free (Roche, model number 1873580)), and the suspended cells were lysed by passing through a microfluidizer M-110H (Mizuho Kogyo Co., Ltd.). The lysate was centrifuged at 10,100×g for 10 minutes, 4° C., and the supernatant was filtered through MILLEX-HV Filter (0.45 μm) (Millipore, SLHV033RS) to remove the cell residues. The filtrate was loaded onto complete His-Tag Purification Resin (Roche Diagnostics, model number 05 893 682 0.01). The column was washed with Equilibration Buffer-1 (50 mmol/L Tris-HCl (pH 7.5), 500 mmol/L NaCl, 1% Tween 20) containing 5 mmol/L Imidazole, followed by Equilibration Buffer-1 containing 50 mmol/L Imidazole, the human Pim-1 to which GST-Tag derived from pGEx-6P-1 was eluted with Equilibration Buffer-1 containing 150 mmol/L imidazole. […] The protease reaction was carried out by stirring overnight at 4° C., and the human Pim-1 in which the GST-Tag sequence was cleaved was eluted. The eluate was loaded onto a gel filtration column (Superdex-200 […] (GE Healthcare, model number 17-5175-01)) equilibrated with Equilibration Buffer-3 (50 mmol/L Tris-HCl (pH 7.5), 500 mmol/L NaCl, 0.05% Tween20, 0.5 mmol/L EDTA, 2 mmol/L DTT, 10% Glycerol), and eluted. The eluate was used as a human Pim-1 purified fraction.
# The protein concentration of the human Pim-1 purified fraction was measured with Pierce 660 nm Protein Assay Reagent (Thermo Fisher Scientific, model number 22660). The purified fraction was rapidly frozen in liquid nitrogen, and then stored at −80° C. The His-Tag-added human Pim-1 was detected by Western blotting using a mouse anti-His monoclonal antibody (WAKO, model number 011-23091).
# (2) Evaluation of Human Pim-1 Inhibitory Activity
# The calculation of the Pim-1 inhibitory activity of the compound was performed using the following solution according to the protocol attached to ADP-Glo Kinase Assay (cat. V9102, Promega). The purified enzyme of human Pim-1 described above was used.
# (i) Preparation of Solution
# The kinase buffer solution (50 mmol/L HEPES (pH 7.5), 5 mmol/L MgCl2, 1 mmol/L DTT, 0.05% BSA) was prepared by dissolving HEPES (Jena Bioscience), MgCl2 (Sigma-Aldrich), DTT (Sigma-Aldrich) and BSA (Sigma-Aldrich) in purified water.
# The ATP solution (288 μmol/L) was prepared by dissolving 100 mmol/L ATP (Promega) in the kinase buffer solution.
# Sequence of human Pim-1 (P11309 whole entry): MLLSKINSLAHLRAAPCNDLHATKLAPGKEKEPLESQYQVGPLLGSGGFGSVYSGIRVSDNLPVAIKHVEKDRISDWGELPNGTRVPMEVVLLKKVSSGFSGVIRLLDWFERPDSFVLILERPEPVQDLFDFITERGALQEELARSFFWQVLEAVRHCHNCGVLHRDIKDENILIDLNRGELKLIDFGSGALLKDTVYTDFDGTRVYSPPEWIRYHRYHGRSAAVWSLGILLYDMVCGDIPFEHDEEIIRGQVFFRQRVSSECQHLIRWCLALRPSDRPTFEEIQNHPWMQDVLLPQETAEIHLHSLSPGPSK
row,Compound,Ki
1,"CC1(O)CCOC(C(F)(F)CN2CCNC(=O)c3oc4ccc(C(F)(F)F)cc4c32)C1 (stereo not shown) [Example 58, 1-(2,2-difluoro-2-(4-hydroxy-4-methyltetrahydro-2H-pyran-2-yl)ethyl)-9-(trifluoromethyl)-1,2,3,4-tetrahydro-5H-benzofuro[3,2-e][1,4]diazepin-5-one]",0.0167 nM
2,N#CC1(CO)CCC(CCN2CCNC(=O)c3oc4ccc(C(F)(F)F)cc4c32)CC1 (stereo not shown) [Example 163],0.0445 nM
3,C[C@@H]1CO[C@@H](CCN2CCNC(=O)c3oc4ccc(C(F)(F)F)cc4c32)CO1 [Example 44],1.04 nM
4,O=C1NCCN(CC(F)(F)C2CC(OC(F)F)CCO2)c2c1oc1ccc(C(F)(F)F)cc21 (stereo not shown) [Example 54],0.133 nM
5,O=C1NCCN(CCC2CCCCC2)c2c1oc1ccc(C(F)(F)F)cc21 [Example 25],11 nM
6,O=C1NCCN(CCC2CC(O)CCC2(F)F)c2c1oc1ccc(C(F)(F)F)cc21 (stereo not shown) [Example 38],0.189 nM
7,C[C@@H]1CO[C@H](CCN2CCNC(=O)c3oc4ccc(C(F)(F)F)cc4c32)CO1 [Example 64],0.263 nM
8,O=C1NC2(CC2)CN(CCC2CCC(O)CC2)c2c1oc1ccc(C(F)(F)F)cc21 (stereo not shown) [Example 126],0.464 nM
9,"O=C1NCCN(CC(F)(F)[C@@H]2CO[C@@H](CO)CO2)c2c1oc1ccc(C(F)(F)F)cc21 [Example 77, 1-(2,2-difluoro-2-((2S,5S)-5-(hydroxymethyl)-1,4-dioxan-2-yl)ethyl)-9-(trifluoromethyl)-1,2,3,4-tetrahydro-5H-benzofuro[3,2-e][1,4]diazepin-5-one]",0.0438 nM
10,CC1COC(CCN2CCNC(=O)c3oc4ccc(C(F)(F)F)cc4c32)CC1O (stereo not shown) [Example 3],0.606 nM
11,O=C1NCCN(CCC2CCC(CO)(CO)CC2)c2c1oc1ccc(C(F)(F)F)cc21 [Example 146],0.0231 nM
12,O=C1NCCN(CC[C@H]2CC[C@@](O)(C(F)(F)F)CC2)c2c1oc1ccc(C(F)(F)F)cc21 [Example 84],0.236 nM
13,O=C1NC2(CC2)CN(CC[C@@H]2CO[C@@H](CO)CO2)c2c1oc1ccc(C(F)(F)F)cc21 [Example 152],0.0929 nM
14,CC1(C(=O)O)CCC(CCN2CCNC(=O)c3oc4ccc(C(F)(F)F)cc4c32)CC1 (stereo not shown) [Example 93],5.15 nM
15,O=C1NC2(CC2)CN(CC(F)(F)[C@H]2CO[C@H](CO)CO2)c2c1oc1ccc(C(F)(F)F)cc21 [Example 164],0.0193 nM
16,CC1COCC(CCN2CCNC(=O)c3oc4ccc(C(F)(F)F)cc4c32)O1 (racemic) [Example 115],0.672 nM
17,O=C1NCCN(CCC2CCC(O)(C3(O)CC3)CC2)c2c1oc1ccc(C(F)(F)F)cc21 (stereo not shown) [Example 111],0.011 nM
18,O=C1CCC(CCN2CCNC(=O)c3oc4ccc(C(F)(F)F)cc4c32)CC1 [Example 75],1.62 nM
19,"O=C1NCCN(CCC2CCC(O)(C(F)(F)CO)CC2)c2c1oc1ccc(C(F)(F)F)cc21 (single isomer, unassigned) [Example 118]",0.127 nM
20,"O=C1NCCN(CC(F)(F)C2CC(O)(C(F)F)CCO2)c2c1oc1ccc(C(F)(F)F)cc21 (single isomer, unassigned) [Example 52]",0.104 nM
21,O=C1NCCN(CCC2COCCO2)c2c1oc1c(F)cc(C(F)(F)F)cc21 (racemic) [Example 76],0.399 nM
22,C[C@]1(O)CC[C@@H](CCN2CCNC(=O)c3oc4ccc(C(F)(F)F)cc4c32)CC1 [Example 79],0.705 nM

row,Compound,Ki
1,N#CC[C@H]1CO[C@@H](CCN2CCNC(=O)c3oc4ccc(C(F)(F)F)cc4c32)CO1 (racemic) [Example 142],4.4 nM
2,O=C1NCCN(CCC2COCC(CO)O2)c2c1oc1ccc(C(F)(F)F)cc21 (racemic) [Example 132],3.59 nM
3,O=C1NCCN(CCC2CCC(O)(CF)CC2)c2c1oc1ccc(C(F)(F)F)cc21 (stereo not shown) [Example 144],0.801 nM
4,O=C1NCCN(CCC2CC3(COC3)C2)c2c1oc1ccc(C(F)(F)F)cc21 [Example 82],2.06 nM
5,CC(C)(O)C1CCC(CCN2CCNC(=O)c3oc4ccc(C(F)(F)F)cc4c32)CC1 (stereo not shown) [Example 98],1.07 nM
6,O=C1NCCN(CCC23CC(CO)(C2)C3)c2c1oc1ccc(C(F)(F)F)cc21 [Example 113],0.726 nM
7,CC1(CO)CCC(CCN2CCNC(=O)c3oc4ccc(C(F)(F)F)cc4c32)CC1 (stereo not shown) [Example 94],0.129 nM
8,"O=C1NCCN(CC(F)(F)[C@H]2CC[C@H](O)CC2)c2c1oc1ccc(C(F)(F)F)cc21 [Example 106, 1-(2,2-difluoro-2-((1r,4r)-4-hydroxycyclohexyl)ethyl)-9-(trifluoromethyl)-1,2,3,4-tetrahydro-5H-benzofuro[3,2-e][1,4]diazepin-5-one]",0.0409 nM
9,O=C1NCCN(CC[C@H]2CC[C@](O)(C(F)(F)F)CC2)c2c1oc1ccc(C(F)(F)F)cc21 [Example 85],4.08 nM
10,N#CCC1COCC(CCN2CCNC(=O)c3oc4ccc(C(F)(F)F)cc4c32)O1 (racemic) [Example 140],5.8 nM
11,O=C1NCCN(CC[C@@H]2CO[C@H](CO)CO2)c2c1oc1ccc(C(F)(F)F)cc21 [Example 72],2.29 nM
12,O=C1NCCN(CCC2CCC(CO)CCO2)c2c1oc1ccc(C(F)(F)F)cc21 (stereo not shown) [Example 9],0.481 nM
13,O=C1NCCN(CC[C@H]2CC[C@@](O)(CCO)CC2)c2c1oc1ccc(C(F)(F)F)cc21 [Example 109],0.193 nM
14,O=C1NCCN(CCC2CC(CO)C2)c2c1oc1ccc(C(F)(F)F)cc21 (stereo not shown) [Example 117],0.801 nM
15,CNC(=O)C1CCC(CCN2CCNC(=O)c3oc4ccc(C(F)(F)F)cc4c32)CC1 (stereo not shown) [Example 100],1 nM
16,"O=C1NCCN(CC(F)(F)C2COCCO2)c2c1oc1ccc(C(F)(F)F)cc21 (single isomer, unassigned) [Example 68]",0.0461 nM
17,COC(C1CC(O)(CO)C1)C1(CN2CCNC(=O)c3oc4ccc(C(F)(F)F)cc4c32)CC1 (racemic) [Example 22],0.848 nM
18,O=C1NCCN(CC(F)(F)C2CCC(O)(CO)CC2)c2c1oc1ccc(C(F)(F)F)cc21 (stereo not shown) [Example 120],0.006 nM
19,"O=C1NCCN(CC(F)(F)[C@H]2CO[C@H](CO)CO2)c2c1oc1ccc(C(F)(F)F)cc21 [Example 95, 1-(2,2-difluoro-2-((2R,5R)-5-(hydroxymethyl)-1,4-dioxan-2-yl)ethyl)-9-(trifluoromethyl)-1,2,3,4-tetrahydro-5H-benzofuro[3,2-e][1,4]diazepin-5-one]",0.0443 nM
20,O=C1NCCN(CC(F)(F)C2CCOCC2)c2c1oc1ccc(C(F)(F)F)cc21 [Example 65],0.12 nM
21,O=C1NCCN(CC(F)(F)C2CC(O)(C(F)(F)F)CCO2)c2c1oc1ccc(C(F)(F)F)cc21 (stereo not shown) [Example 19],0.101 nM
22,O=C1NC2(CC2)CN(CC(F)(F)C2CCS(=O)(=O)CC2)c2c1oc1ccc(C(F)(F)F)cc21 [Example 160],0.0982 nM

# Same assay, conditions: hPim1 Ki (nM), Ki converted from IC50; purified human Pim-1, Pim2tide substrate, ADP-Glo
row,Compound,Ki
1,O=C1NC2(CC2)CN(CCC2CCC(O)CC2)c2c1oc1ccc(C(F)(F)F)cc21 (stereo not shown) [Example 125],0.0592 nM
2,[2H]C1(O)CCC(CCN2CCNC(=O)c3oc4ccc(C(F)(F)F)cc4c32)CC1 (stereo not shown) [Example 92],0.707 nM
3,O=C1NCCN(CCC2CCC(C3(O)CC3)CC2)c2c1oc1ccc(C(F)(F)F)cc21 (stereo not shown) [Example 99],0.0764 nM
4,O=C1NCCN(CC(F)(F)C2COCCO2)c2c1oc1ccc(C(F)(F)F)cc21 (racemic) [Example 56],0.0723 nM

# Same assay, conditions: read-out: hPim1 Ki; Ki converted from IC50; purified human Pim-1, Pim2tide substrate, ADP-Glo
row,Compound,Ki
1,O=C1NCCN(CCC2CCC(O)(CO)CC2)c2c1oc1ccc(C(F)(F)F)cc21 (stereo not shown) [Example 89],0.0329 nM
